pIC50: −log10 of the molar value.
Columns and labels:
MDA-MB-231 = experiment: SRB colorimetric cytotoxicity assay, MDA-MB-231; format: cell-based, human; conditions: Homo sapiens, breast adenocarcinoma
Text: (§1) The aim of this assay is to evaluate the in vitro cytostatic (ability to delay or arrest tumor cell growth) or cytotoxic (ability to kill tumor cells) activity of the samples being tested.
(§2) A colorimetric assay, using sulforhodamine B (SRB) reaction has been adapted to provide a quantitative measurement of cell growth and viability (following the technique described by V. Vichai and K. Kirtikara (2006) Nature Protoc. 1, 1112-1116.)
(§3) This form of assay employs 96-well cell culture microplates. All the cell lines used in this study were obtained from the American Type Culture Collection (ATCC), unless otherwise indicated, and derive from different types of human cancer.
(§4) Cells were maintained in Dulbecco's Modified Eagle Medium (DMEM) (for A549, HT-29 and MDA-MB-231) or RPMI (for PSN-1) supplemented with 10% Fetal Bovine Serum (FBS), 2 mM L-glutamine, 100 U/mL penicillin and 100 U/mL streptomycin at 37° C., 5% CO2 and 98% humidity. For the experiments, cells were harvested from subconfluent cultures using trypsinization and resuspended in fresh medium before counting and plating.
(§5) Cells were seeded in 96 well microtiter plates, at 5×10^3 cells per well in aliquots of 150 μL, and allowed to attach to the plate surface for 18 hours (overnight) in drug free medium. After that, one control (untreated) plate of each cell line was fixed (as described below) and used for time zero reference value. […] After 72 hours treatment, the antitumor effect was measured by using the SRB methodology: Briefly, cells were washed twice with PBS, fixed for 15 min in 1% glutaraldehyde solution at room temperature, rinsed twice in PBS, and stained in 0.4% SRB solution for 30 min at room temperature. Cells were then rinsed several times with 1% acetic acid solution and air-dried at room temperature. SRB was then extracted in 10 mM trizma base solution and the absorbance measured in an automated spectrophotometric plate reader at 490 nm. Effects on cell growth and survival were estimated by applying the NCI algorithm (Boyd M R and Pauli K D. Drug Dev Res. 1995, 34, 91-104).
(§6) Using the mean±SD of triplicates, a dose-response curve was automatically generated using nonlinear regression analysis to a 4-parameter logistic curve. Three reference parameters were calculated (NCI algorithm) by automatic interpolation: GI50=compound concentration that produces 50% cell growth inhibition, as compared to control cultures; TGI=total cell growth inhibition (cytostatic effect), as compared to control cultures, and LC50=compound concentration that produces 50% net cell killing (cytotoxic effect).

PSN-1 = experiment: SRB colorimetric cytotoxicity assay, PSN-1; format: cell-based, human; conditions: Homo sapiens, pancreatic adenocarcinoma
Text: as §1, §2, §3, §4, §5, §6

HT29 = experiment: SRB colorimetric cytotoxicity assay, HT29; format: cell-based, human; conditions: Homo sapiens, colorectal adenocarcinoma
Text: as §1, §2, §3, §4, §5, §6

A549 = experiment: SRB colorimetric cytotoxicity assay, A549; format: cell-based, human; conditions: Homo sapiens, lung carcinoma (NSCLC)
Text: as §1, §2, §3, §4, §5, §6

SK-HEP-1 = conditions: liver cancer cell line; WO2002066046; cited from earlier work
SNU-638 = conditions: gastric cancer cell line; WO2002066046; cited from earlier work
SNU-216 = conditions: gastric cancer cell line; WO2002066046; cited from earlier work
AGS = conditions: gastric cancer cell line; WO2002066046; cited from earlier work
HepG2 = conditions: liver cancer cell line; WO2002066046; cited from earlier work
Hep3B = conditions: liver cancer cell line; WO2002066046; cited from earlier work
[1] = MDA-MB-231, 72 h, 72 hours treatment
[2] = HT-29, 72 h, 72 hours treatment

SMILES | GI50 (MDA-MB-231; [1]) | GI50 (PSN-1; PSN1, 72 h, 72 hours treatment) | GI50 (HT29; [2]) | GI50 (A549; A549, 72 h, 72 hours treatment) | also measured
CCC[C@@H](NC(=O)[C@]1(C)CSC(/C(C)=N/OCCCCO[Si](C)(C)C(C)(C)C)=N1)c1cc(OC)cc(=O)o1 [Compound 146] | – | – | – | – | GI50 (MDA-MB-231; MDA-MB-231, 72 hours treatment): 2820 nM; GI50 (PSN-1; PSN1, 72 hours treatment): 2110 nM; GI50 (HT29; HT-29, 72 hours treatment): 1020 nM; GI50 (A549; A549, 72 hours treatment): 1940 nM
CCC[C@@H](NC(=O)[C@]1(C)CSC(/C(C)=N/OCCCCO)=N1)c1cc(OC)cc(=O)o1 [Compound 147] | 287 nM | 243 nM | 137 nM | 148 nM | –
CCC[C@@H](NC(=O)[C@]1(C)CSC(/C(C)=N/OCCCCO[Si](C)(C)C(C)(C)C)=N1)c1cc(OCC2CC2)cc(=O)o1 [Compound 148] | – | – | – | – | GI50 (MDA-MB-231; MDA-MB-231, 72 hours treatment): 247 nM; GI50 (PSN-1; PSN1, 72 hours treatment): 296 nM; GI50 (HT29; HT-29, 72 hours treatment): 59.2 nM; GI50 (A549; A549, 72 hours treatment): 263 nM
CCC[C@@H](NC(=O)[C@]1(C)CSC(/C(C)=N/OCCCCO)=N1)c1cc(OCC2CC2)cc(=O)o1 [Compound 149] | 8.91 nM | 13.6 nM | 6.28 nM | 6.69 nM | –
CCC[C@@H](NC(=O)[C@]1(C)CSC(/C(C)=N/OCCCS)=N1)c1cc(OC)cc(=O)o1 [Compound 151] | 1340 nM | 1210 nM | 505 nM | 856 nM | –
C=CCOc1cc([C@@H](CCC)NC(=O)[C@]2(C)CSC(/C(C)=N/OCCCNC(=O)OC(C)(C)C)=N2)oc(=O)c1 [Compound 152] | 26.6 nM | 21.3 nM | 19.5 nM | 19.5 nM | –
C#CCOc1cc([C@@H](CCC)NC(=O)[C@]2(C)CSC(/C(C)=N/OCCCNC(=O)OC(C)(C)C)=N2)oc(=O)c1 [Compound 155] | 74.8 nM | 73 nM | 40.9 nM | 37.4 nM | –
CCC[C@@H](NC(=O)[C@]1(C)CSC(/C(C)=N/OCCCNC(=O)OC(C)(C)C)=N1)c1cc(OCC2CC2)cc(=O)o1 [Compound 157] | 5.37 nM | 5.54 nM | 5.02 nM | 5.37 nM | –
CCC[C@@H](NC(=O)[C@]1(C)CSC(/C(C)=N/OCCC2COC(C)(C)O2)=N1)c1cc(OCC2CC2)cc(=O)o1 (some centres unmarked) [Compound 159] | 67.3 nM | 50.9 nM | 63.7 nM | 49.1 nM | –
C=CCOc1cc([C@@H](CCC)NC(=O)[C@]2(C)CSC(C(C)=NOCCCCN3CCOCC3)=N2)oc(=O)c1 [Compound 161] | 6.49 nM | 5.13 nM | 5.47 nM | 4.96 nM | –
C=CCOc1cc([C@@H](CCC)NC(=O)[C@]2(C)CSC(C(C)=NOCCCN3CCN(C)CC3)=N2)oc(=O)c1 [Compound 163] | 16.6 nM | 16.4 nM | 15.6 nM | 16.1 nM | –
C=CCOc1cc([C@@H](CCC)NC(=O)[C@]2(C)CSC(/C(C)=N/OC(=O)COCCOCCOC)=N2)oc(=O)c1 [Compound 164] | 7.22 nM | 6.52 nM | 4.58 nM | 6.52 nM | –
C=CCOc1cc([C@@H](CCC)NC(=O)[C@]2(C)CSC(/C(C)=N/OC(=O)CCCCCNC(=O)OC(C)(C)C)=N2)oc(=O)c1 [Compound 165] | 7.41 nM | 6.44 nM | 5.32 nM | 5.48 nM | –
CCC[C@@H](NC(=O)[C@]1(C)CSC(/C(C)=N/OC(=O)CCCCCNC(=O)OC(C)(C)C)=N1)c1cc(OCC2CC2)cc(=O)o1 [Compound 166] | 7.09 nM | 6.3 nM | 4.57 nM | 4.73 nM | –
C=CCOc1cc([C@@H](CCC)NC(=O)[C@]2(C)CSC(/C(C)=N/OC(=O)[C@H]3O[C@@H]4OC(C)(C)O[C@@H]4[C@H]4OC(C)(C)O[C@H]43)=N2)oc(=O)c1 [Compound 170] | 5.57 nM | 2.71 nM | 2.41 nM | 3.01 nM | –
C=CCOc1cc([C@@H](CCC)NC(=O)[C@]2(C)CSC(/C(C)=N/OP(=O)(OCc3ccccc3)OCc3ccccc3)=N2)oc(=O)c1 [Compound 172] | 108 nM | 100 nM | 56.9 nM | 80.9 nM | –
CCC[C@@H](NC(=O)[C@@H]1CSC(C(C)=O)=N1)c1cc(OCC2CC2)cc(=O)o1 [Compound 177] | 1610 nM | > 25500 nM | 1550 nM | 2270 nM | –
CCC[C@@H](NC(=O)[C@@H]1CSC(/C(C)=N/O)=N1)c1cc(OCC2CC2)cc(=O)o1 [Compound 178] | 49.1 nM | 36.8 nM | 76.1 nM | 41.7 nM | –
CCC[C@@H](NC(=O)[C@]1(C)CSC(/C(C)=N/O[C@H]2O[C@@H]3COC(C)(C)O[C@H]3[C@@H]3OC(C)(C)O[C@H]23)=N1)c1cc(OCC2CC2)cc(=O)o1 [Compound 179] | 13.7 nM | 14.3 nM | 6.48 nM | 9.04 nM | –
CCC[C@@H](NC(=O)[C@]1(C)CSC(/C(C)=N/O[C@H]2O[C@H](CO)[C@@H](O)[C@@H]3OC(C)(C)O[C@H]23)=N1)c1cc(OCC2CC2)cc(=O)o1 [Compound 180] | 417 nM | 529 nM | 369 nM | 593 nM | –
CCC[C@@H](NC(=O)[C@]1(C)CSC(/C(C)=N/O[C@H]2O[C@H](CO)[C@@H](O)[C@H](O)[C@@H]2O)=N1)c1cc(OCC2CC2)cc(=O)o1 [Compound 181] | 6340 nM | 6850 nM | 4970 nM | > 17100 nM | –
C=C(C)C1=N[C@](C)(C(=O)N[C@H](CCC)c2cc(OCC3CC3)cc(=O)o2)CS1 [Compound 182] | 91.5 nM | 81.6 nM | 74.2 nM | 61.8 nM | –
CCC[C@@H](NC(=O)[C@]1(C)CSC(/C(C)=N/O[Si](c2ccccc2)(c2ccccc2)C(C)(C)C)=N1)c1cc(OCC2CC2)cc(=O)o1 [Compound 183] | – | – | – | – | GI50 (MDA-MB-231; MDA-MB-231, 72 hours treatment): 5 nM; GI50 (PSN-1; PSN1, 72 hours treatment): 8.18 nM; GI50 (HT29; HT-29, 72 hours treatment): 5.46 nM; GI50 (A549; A549, 72 hours treatment): 5.76 nM
CCC[C@@H](NC(=O)[C@]1(C)CSC(/C(C)=N/O[Si](c2ccccc2)(c2ccccc2)C(C)(C)C)=N1)c1cc(O)cc(=O)o1 [Compound 184] | – | – | – | – | GI50 (MDA-MB-231; MDA-MB-231, 72 hours treatment): 4460 nM; GI50 (PSN-1; PSN1, 72 hours treatment): 4130 nM; GI50 (HT29; HT-29, 72 hours treatment): 2970 nM; GI50 (A549; A549, 72 hours treatment): 4790 nM
C=C(OCC)C1=N[C@](C)(C(=O)N[C@H](CCC)c2cc(OCC3CC3)cc(=O)o2)CS1 [Compound 185] | 228 nM | 140 nM | 207 nM | 161 nM | –
C=CCOc1cc([C@@H](CCC)NC(=O)[C@]2(C)CSC(/C(C)=N/O)=N2)[nH]c(=O)c1 [Compound 190] | 239 nM | 344 nM | 244 nM | 590 nM | –
CCC[C@@H](NC(=O)[C@]1(C)CSC(/C(C)=N/OCCCCOP(=O)(OC(C)(C)C)OC(C)(C)C)=N1)c1cc(OCC2CC2)cc(=O)o1 [Compound 191] | 612 nM | 875 nM | 554 nM | 496 nM | –
CCC[C@@H](NC(=O)[C@]1(C)CSC(/C(C)=N/OCCCCOP(=O)(O)O)=N1)c1cc(OCC2CC2)cc(=O)o1 [Compound 192] | 16.4 nM | 27.9 nM | 7.15 nM | 9.07 nM | –
CCC[C@H](NC(=O)[C@]1(C)CSC(/C(C)=N/O)=N1)c1cc(OC)cc(=O)o1 [Compound epi-1] | 3930 nM | 5770 nM | 3410 nM | 2880 nM | –
COC1=CC(=O)N(C(=O)[C@H]2CSC([C@H](CO)NC(=O)c3csc(/C=N/O)n3)=N2)C1 [althiomycin] | – | – | – | – | pIC50 (SK-HEP-1): 6.09; pIC50 (SNU-638): 6.11; pIC50 (SNU-216): 6.11; pIC50 (AGS): 6.07; pIC50 (HepG2): 5.84; pIC50 (Hep3B): 6.06

From US12215100B2, “Anticancer compounds” (Pharma Mar, S.A., priority 2018, dated 2025)
